Data taken from US20250123290A1, “BIOTIN-FREE PROXIMITY LABELING” (HOWARD HUGHES MEDICAL INSTITUTE, priority 2023, published 2025).

Assays:
cilia and mitochondria = test: CLA-tyramide labeling in cilia and mitochondria, detection with EGFP-HaloTag protein; type: cell-based; details: 250 μM CLA-tyramide; FIGS. 3B and 3D
Experimental: CLA-tyramide labeling was conducted in cilia and mitochondria. FIGS. 3A and 3B show CLA-tyramide labeling in cilia. FIGS. 3C and 3D show CLA-tyramide labeling in mitochondria. FIGS. 3B and 3D are from experiments in which 250 μM CLA-tyramide was applied to cells. Cells were fixed, permeabilized, and incubated with EGFP-HaloTag protein.

[1] = system: cultured primary neurons expressing LAMP1-APEX2-V5; test: CLA-tyramide proximity labeling of neuronal lysosomal proteins, imaging with HaloTag protein and antibody staining; type: cell-based, rat; details: 150 μM CLA-tyramide, FIG. 2C
Excerpt: The exemplary system studied in this Example makes use of a unique substrate for proximity labeling, which is a CLA-phenol compound, which in some cases is referred to herein as a CLA-tyramide compound. As will be appreciated, the chemical structure of tyramide includes a phenol moiety. To establish efficacy, the exemplary system was used to detect proteins that are enriched in neuronal lysosomes with lysosome-targeted APEX2 (Lamp1-APEX2).
With reference to FIG. 2A, cultured primary neurons expressing LAMP1-APEX2-V5 were incubated with 0 μM, 50 μM, 150 μM, or 500 μM CLA-tyramide, respectively. Neurons were fixed, permeabilized, and incubated with HaloTag protein. Cells were then stained with antibodies against HaloTag, V5, and MAP5 to label CLA-tagged proteins, LAMP1-APEX2-V5 (lysosome APEX2), and neurons, respectively.
Line scans show the relative intensity of CLA-tagged proteins and LAMP1-APEX2-V5.

APEX2 in the mouse brain = test: CLA-tyramide (CLA-phenol) mediated proximity labeling in mouse brain; type: in vivo; details: mouse brain samples; FIGS. 4A-4B
Experimental: CLA-tyramide (CLA-phenol) mediated proximity labeling was conducted in mouse brain. […] The mouse brain samples were fixed, permeabilized, and incubated with HaloTag protein. The samples were then stained with antibodies against HaloTag and V5 (on APEX2) to label CLA-tagged proteins and APEX2, respectively.

SMILES: O=C(NCCOCCOCCCCCCCl)NCCc1ccc(O)cc1 [CLA-tyramide]
- labeling in different subcellular compartments (cilia, mitochondria) (cilia and mitochondria): can be applied to different subcellular compartments
- colocalization of CLA-tagged proteins and LAMP1-APEX2-V5 (line scans of relative intensity) [1]: Good colocalization
- co-localization of CLA-tagged proteins and APEX2 (V5) (APEX2 in the mouse brain): good co-localization of most structures
